These results are taken from US20050025795A1, “Compounds, Compositions and methods for insect control” (The Procter & Gamble Company, priority 2003, published 2005).

Where a name gives a salt, the structure may show the parent alone. Read-outs that look alike come from different tables or passages of the source. Marks after values point to notes of the source that are not given here. Some results are limits rather than exact numbers.

The subject of test [1] is roaches. Format: in vivo, cockroaches. As for the experimental part: An ˜500 mL jar is coated at the top with a thin film of petroleum jelly and covered with a plastic petri dish as a lid. […] The filter paper is bent in half to form a ‘tent’, as shown, so the roaches are not forced to contact the filter paper. The lid is removed, and a compound or composition to be tested is added to the top of the paper, at the bend. The lid is replaced and the insects monitored for activity at 15, 30, 45 minutes, then 1, 2, 4 and 24 hours post exposure.
This is done by taking multiple testes and plotting them on a dose-response curve such as the GraphPad® Prism® computer program. This program interpolates to find the midpoint of any sigmoidal dose-response curve.
The data in Table 1 can graphed as a sigmoidal dose response, much the same as any other biological data. […] The mid-Point of the dose-response curve is given by the computer and used to compare potencies. […] It is also necessary to understand the range of the testing. While the lower limit is in the 1 to 3 microliter range, the upper limit is about 250 microliters. Adding more material than that to the filter paper will allow the substance to drip onto the glass, where contact with the insects might occur. […] Several compounds are tested in a 2 liter (L) jar rather than the 0.5 L jars which are the primary assay.

The test system of test [2] is insects of the blattella species. As to the kind of experiment: Direct contact spray knockdown. Format: in vivo. The text has this: A formula is created consisting exclusively of ethylene glycol diformate. This diformate is placed in aerosol cans and pressurized with carbon dioxide as propellant. This material, when sprayed on insects of the blattella species, results in knockdown in under 30 seconds. When administered in the vapor phase according to Example 1, in a 500 milliliter jar, 15 microliters of the formula in the vapor phase kills all the insects in one hour.
Raid (#271) Roach and Ant Killer and Treatment is purchased and repeatedly tested in the assay of Example 1, and in a direct contact test. It did knowndown both the peripleneta species (17.2+/−3.2 seconds) and the blattella species (kill time 16 seconds) when directly sprayed on the insects.

Where [3] appears, read: 5 µL, ~500 mL jar, 6 insects in this jar.

Take (R) (−) carvone: the “Fraction of the roaches that die in 24 hrs” value in test [1] (individually tested at 29 milligrams/500 milliliters, 24 hrs) was “⅕”.

For the compound `O=COCCOC=O` [ethylene glycol diformate], the “Insects killed in the vapor phase” value in test [1] (15 microliters of the formula, 500 milliliter jar, one hour) was “all”. For the same compound, the “LD50 (vapor phase)” value in test [1] (in a 500 milliliter jar) is listed as “approximately 7.5 microliters”. Besides, in test [1] (in vivo), the “Relative potency within the diformate ester series (in words)” value was “most potent compound of the series”. Besides, the “Knockdown time when sprayed on insects” value in test [2] is “under 30 seconds”.

As for `O=COC1CCCC1` [compound 2-2, cyclopentyl formate], in test [1] (~500 mL jar), the “24 hr LD50 (vapor phase)” value is on record as 17 microliters per 500 milliliters headspace.

`Cc1coc2c1CC[C@@H](C)C2` [(+)-Menthofuran, (+) menthofuran]: in test [1] (2 L jar), the “LD50 (vapor phase) in a 2 L jar” value is given as 15 microliters per 2 L headspace. The “Percent Dead Only at 4 hours” value in test [1] (setting [3]) amounted to 33%*; in test [1] (10 µL (repeat), ~500 mL jar) it was 40%; in test [1] (10 µL, ~500 mL jar) it was 100%; in test [1] (15 µL, ~500 mL jar) it was 100%; in test [1] (20 µL, ~500 mL jar), 100%; in test [1] (33 µL, ~500 mL jar), 100%. The “Percent Dead at 24 hours” value was found to be 33%* in test [1] (setting [3]); 40% in test [1] (10 µL (repeat), ~500 mL jar); 80% in test [1] (10 µL, ~500 mL jar); 100% in test [1] (15 µL, ~500 mL jar); 100% in test [1] (20 µL, ~500 mL jar); 100% in test [1] (33 µL, ~500 mL jar). Also, the “Percent Distressed or Dead at 4 hours” value worked out at 33%* in test [1] (setting [3]); 40% in test [1] (10 µL (repeat), ~500 mL jar); 100% in test [1] (10 µL, ~500 mL jar); 100% in test [1] (15 µL, ~500 mL jar); 100% in test [1] (20 µL, ~500 mL jar); 100% in test [1] (33 µL, ~500 mL jar). Also, the “LD50 (vapor phase)” value in test [1] (~500 mL jar) was 7.2 microliters/500 milliliters headspace.

Consider `C=CCc1ccc(O)c(OC)c1` [eugenol, reference compound], for which the “LD50 (vapor phase)” value in test [1] (~500 mL jar) is on record as > 300 milligrams/500 milliliters.

Turning to `CC(C)(C)OC=O` [compound 2-1, tert-butyl formate], the “24 hr LD50 (vapor phase)” value in test [1] (~500 mL jar) is given as 40 microliters per 500 milliliters headspace.
